Series [1] can be described thus: Dynamic vapor moisture sorption/desorption analysis. It is filed as physicochemical. The settings on record: for Moisture uptake by weight: between 75% and 95% RH, sorption; for hysteresis during the desorption cycle: desorption cycle (Form B: between 45% RH and 5% RH); for relative humidity above which hygroscopicity was exhibited: dynamic vapor sorption/desorption, 5% to 95% RH. The method, then:
Dynamic vapor sorption/desorption data were collected on a VTI SGA-100 Vapor Sorption Analyzer. Sorption and desorption data were collected over a range of 5% to 95% relative humidity (RH) at 10% RH intervals under a nitrogen purge. Samples were not dried prior to analysis. Equilibrium criteria used for analysis were less than 0.0100% weight change in 5 minutes, with a maximum equilibration time of 3 hours if the weight criterion was not met. Data were not corrected for the initial moisture content of the samples. NaCl and PVP were used as calibration standards.
Dynamic vapor moisture sorption/desorption data was collected for representative samples for oxymorphone HCl Form A and Form B, as shown in FIG. 13 and FIG. 16, respectively.

A short description of series [2]: Mechanical grinding studies (physical stability of crystalline form).
Series [3] is described as follows: Physical stability at ambient temperature storage (re-analysis of crystalline form).
[4] abbreviates: re-analyzed after approximately 12 months.

As for `CN1CC[C@]23c4c5ccc(O)c4O[C@H]2C(=O)CC[C@@]3(O)[C@H]1C5.Cl` [Form A, 4,5-epoxy-3,14-dihydroxy-17-methyl-(5α)-morphinan-6-one hydrochloride (1:1), reference compound], in series [1] (at 5% RH, end of cycle), the “moisture retained at the end of the desorption cycle” value is given as 2.4%. For the same compound, in series [1], the “Moisture uptake by weight” value was “about 50%”, the “hysteresis during the desorption cycle” value was “hysteresis was observed” and the “relative humidity above which hygroscopicity was exhibited” value was “above 75%”.

In the case of `CN1CC[C@]23c4c5ccc(O)c4O[C@H]2C(=O)CC[C@@]3(O)[C@H]1C5.Cl` [Form B, 4,5-epoxy-3,14-dihydroxy-17-methyl-(5α)-morphinan-6-one hydrochloride (1:1)], in series [1], the “Moisture uptake by weight” value is given as “about 43%”, the “hysteresis during the desorption cycle” value is listed as “no hysteresis was observed” and the “relative humidity above which hygroscopicity was exhibited” value is “above 75%”. Moreover, the “moisture content at the end of the cycle (in words)” value in series [1] (end of desorption cycle) is listed as “returned to the initial moisture content”. Also, in series [2] (in the presence of a small quantity of water), the “physical stability under mechanical grinding” value is recorded as “physically stable”. The “physical stability under mechanical grinding” value in series [2] (mechanically ground in the absence of water) was “partially converted to Form A”.

Take `CN1CC[C@]23c4c5ccc(O)c4O[C@H]2C(=O)CC[C@@]3(O)[C@H]1C5.Cl` [Form C, 4,5-epoxy-3,14-dihydroxy-17-methyl-(5α)-morphinan-6-one hydrochloride (1:1)]: in series [3] (Example 8 sample, storage time not given), the “form found on re-analysis by pXRD after storage in ambient conditions” value is given as “remain Form C”. Moreover, the “stability at ambient temperature storage” value in series [3] (setting [4]) was “stable”.

Turning to `CN1CC[C@]23c4c5ccc(O)c4O[C@H]2C(=O)CC[C@@]3(O)[C@H]1C5.Cl` [Form D, 4,5-epoxy-3,14-dihydroxy-17-methyl-(5α)-morphinan-6-one hydrochloride (1:1)], the “crystalline form(s) converted to on ambient temperature storage” value (“crystalline form(s) converted” for short) in series [3] (after approximately 12 months) was “a mixture of Form A and Form B”. Besides, the “stability at ambient temperature storage” value in series [3] (setting [4]) is given as “unstable”.

`CN1CC[C@]23c4c5ccc(O)c4O[C@H]2C(=O)CC[C@@]3(O)[C@H]1C5.Cl` [Form F, 4,5-epoxy-3,14-dihydroxy-17-methyl-(5α)-morphinan-6-one hydrochloride (1:1)]: in series [3] (after approximately 10 months), the “crystalline form(s) converted” value is listed as “converting to Form A” and the “stability at ambient temperature storage” value was “unstable”.

Regarding `CN1CC[C@]23c4c5ccc(O)c4O[C@H]2C(=O)CC[C@@]3(O)[C@H]1C5.Cl` [Form L, 4,5-epoxy-3,14-dihydroxy-17-methyl-(5α)-morphinan-6-one hydrochloride (1:1)], in series [3] (after approximately 10 weeks), the “crystalline form(s) converted” value is “a mixture of crystalline forms, one of which is Form A (a sesquihydrate) and the other is a monohydrate/hemi-ethanolate”; the “stability at ambient temperature storage” value was “unstable”.
